Results on one compound are retold here after article PMC9919490, “Synthesis and Biological Evaluation of Novel Dispiro-Indolinones with Anticancer Activity” (Molecules, 2023).

One data set has as its system PC3 cells. Nature of the data set: MTT cytotoxicity assay, PC3 (p53 neg). Format: cell-based. Conditions: Homo sapiens, PC-3, 48 h. In general terms: Formazan colour is commonly taken as a measure of viable cells.
A further data set has as its system P388. Nature of the data set: P388 transplant model in mice. Format: in vivo. Conditions: for ALS (average life span): control 16.6 ± 1.8 d. The method, then: To preliminary estimate the antitumor effect of the compound in vivo, transplant P388 and HCT116 xenograft mouse models were used.
Prior to the trials, the animals were split into different groups (five mice per group). One group was monitored as a control population, where the animals were kept untreated, while the other groups were subjected to the tested compound. […] Four independent trials were carried out.
For the first evaluation, the sample was initially injected i.p. on day 2 of the study, and the treatment was subsequently continued during the following 9 days (total 10 d course). The typical doses were calculated considering the average body weight of the animals (20 g) and ranged between groups 1 and 3; group 4 was assigned as a control population. […] To verify the obtained results, we performed the second evaluation using the following schedule: the first group was administered i.p. with 500 mg/kg (5000 mg/kg), the second group was given 750 mg/kg (7500 mg/kg), and the third group was given 1000 mg/kg (10,000 mg/kg). We also carried out the third trial with an appropriate dose of 1000 mg/kg. For p.o. administration (trial 4), we used a single dose (170 mg/kg) of the unmodified compound; the cumulative dose was 1700 mg/kg.
DBA2 mice were used as donors of cancerous mass; a total of 50 animals were recruited. Twenty-three conventional, immunodeficient female mice (BALB/c nude, 20–23 g) were housed in RAMS and used as donors and recipients for HCT116 cells.
For the evaluation of the compound against leucosis in vivo, we used 5 and 8 passages of P388 culture. […]

Setting [1] is: first trial, i.p. 295 mg/kg (g1).
Setting [2] is: first trial, i.p. 882 mg/kg (g2).

In the data set with PC3 cells, `CCOc1ccc(N2C(=O)C3(NC2=S)C(c2ccc(Cl)cc2)CN(C)C32C(=O)Nc3ccc(Br)cc32)cc1` (centres unmarked) [Compound 29] displayed an IC50 of 9.8 ± 3.7 µM. Moreover, the “mortality at highest dose, close to the MTD” value with P388 (1263 mg/kg (12,630 mg/kg cumulative), day 3 after the treatment was stopped) is “one mouse (bw = 19 g) dying”. The “days on which lethal outcomes were registered” value in the data set on P388 (setting [1]) lay within 16 to 24 days; with P388 (setting [2]) it was 18 to 22 days. Besides, the “LSE (lifespan extension)” value is 17% in the data set on P388 (first trial, i.p. 295 mg/kg (g1), p > 0.05) and 19% in the data set on P388 (first trial, i.p. 882 mg/kg (g2), p > 0.05). Besides, the entries for the “ALS (average life span)” value in the data set with P388 (setting [1]) and in the data set with P388 (setting [2]) were 19.8 ± 3.0 days and 19.4 ± 1.7 days, respectively. The “days on which deaths were observed” value in the data set with P388 (first trial, i.p. 1176 mg/kg (g3)) was 14 to 22 days. Further, the TGRI in the data set with P388 (first trial, i.p. 1176 mg/kg (g3), subsequent three days) was 40%; in the data set with P388 (first trial, i.p. 1176 mg/kg daily (g3), 24 h after the treatment was discontinued), 76%; in the data set on P388 (i.p. 500 mg/kg) it was “approx. 50%”; in the data set on P388 (second trial, i.p. 750 mg/kg o.d., day 2 after the treatment was completed, p = 0.002), 68%; in the data set on P388 (second trial, i.p. 750 mg/kg o.d., subsequent 3 days), 62%; in the data set on P388 (third trial, i.p. 1000 mg/kg o.d. 10 days, day 2 after the treatment was completed), 81.3%. For the same compound, the TGRI is 93% in the data set on P388 (third trial, i.p. 1000 mg/kg o.d., day 8 after the treatment was discontinued (final control timepoint)) and 89% with P388 (third trial, i.p. 1000 mg/kg o.d., following 3 days). The T/C in the data set on P388 (first trial, i.p. o.d. 10 days, 295 and 882 mg/kg) is < 42%. The “TGRI (tumor growth rate inhibition)” value in the data set with P388 (first trial, sample (17% compound, Pluronic F-127) i.p. o.d. 10 days, 295 mg/kg (g1) and 882 mg/kg (g2), p > 0.05) is recorded as 32–37%. The compound also showed a Т/C% with P388 (p.o. 170 mg/kg o.d. 10 days, day 12) of 84%. The “Tumor volume, av. volume” value with P388 (p.o. 170 mg/kg o.d. 10 days, day 12, control 570) was 481 mm3; in the data set with P388 (p.o. 170 mg/kg o.d. 10 days, day 15, control 804) it was 1099 mm3. In addition, the LSE with P388 (third trial, i.p. 1000 mg/kg o.d.) was 33.33%.

In general, IC50 refers to the point on the concentration scale where inhibition reaches its midpoint. Low values mean greater potency in that assay, high ones weaker potency in that assay. The T/C is the result in the treated group divided by that in the control group, in per cent.
